According to patent CN109329202A, “一种有效抑制n-羟乙酰神经氨酸合成的方法” (Guizhou University, priority 2018, dated 2019):

Tested on: Neu5Gc synthesis [Neu5Gc的合成]
Assay: Neu5Gc degradation in rat muscle, liver and kidney after 30 d oral gavage (HPLC after DMB derivatisation)
Format: in vivo
Details: male SD rats, oral gavage 200 mg/(kg.d) in 0.5% sodium carboxymethylcellulose, vs blank control (HPLC peak area)

For `O=c1c(O)c(-c2ccc(O)cc2)oc2cc(O)cc(O)c12` [山奈酚], the “Neu5Gc degradation rate, kidney sample” value (kidney) was 17.55%, the “Neu5Gc degradation rate, liver sample” value (liver) was 6.315% and the “Neu5Gc degradation rate, meat sample” value (thigh muscle) was 13.356%.
